Assay: gradient 5% acetonitrile 3 min, to 50% in 2 min, to 85% in 15 min, held 3 min, 100 µL/min
Details: column: Zorbax Extend-C18 2.1 x 50 mm; eluents: water / acetonitrile, 0.1% formic acid
Procedure, shortened: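 The system's dead and dwell volumes were 40 μL and 900 μL, with a Zorbax Extend-C18 column (2.1 × 50 mm, 1.8 μm) run at 100 μL/min in water and acetonitrile containing 0.1% formic acid each. Pure standards were analyzed in mixtures of ~100 molecules by HPLC–quadrupole time-of-flight mass spectrometry in positive and negative ionization mode. Retention time was assigned from computationally picked, manually inspected adduct peaks.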

SMILES	RP-LC retention time [s]
Cc1cc(-c2cc(S(=O)(=O)NCCc3ccc(Cl)cc3)c(C)s2)n[nH]1	915
CCS(=O)(=O)c1nc2ccc(NS(=O)(=O)c3ccc4c(c3)CCCC4)cc2s1	1010
CC1CCN(S(=O)(=O)c2ccc3nn(Cc4ccc(Cl)cc4)c(=O)n3c2)CC1	819
Cn1ncc2c(N3CCCC3)nc(C(=O)NCc3ccc(C(F)(F)F)cc3)nc21	905
Cc1ccc(-c2noc(-c3ccc(N4CCN(c5ccccn5)CC4)nc3)n2)cc1	805
CCOC(=O)C1CCN(C(=O)C2CCN(S(=O)(=O)c3ccc4c(c3)CCCC(=O)N4)CC2)CC1	713
Cc1cc(C)n(-c2ncnc3c2cnn3-c2ccc(F)cc2)n1	1420
CCC(C(=O)NCCCN1CCCC1)n1nc(C)c2nn(-c3ccccc3)c(C)c2c1=O (stereo not drawn)	645
COc1cccc(CN2CC(c3nc(CCOCc4ccccc4)no3)C2)c1	708
CSc1ccccc1CN1CCC(CNC(=O)C(=O)NCCC2=CCCCC2)CC1	622
Cc1oc2ccn(Cc3ccc(F)cc3)c(=O)c2c1C(=O)NCC1CC1	988
COC(=O)c1c(NC(C)C)c2cccc(Cl)c2[nH]c1=O	725
Fc1ccc(C2Cn3nnc(-c4nc(-c5ccc(Cl)cc5)no4)c3CO2)cc1 (stereo not drawn)	1230
CCOC(=O)c1c(C)[nH]c(C(=O)N2CCCC(C(=O)NCc3ccc(F)cc3)C2)c1C (stereo not drawn)	803
Cc1ccc(N2CCC(NC(=O)Cc3ccccc3C)C2=O)cc1 (stereo not drawn)	869
CCC(CC)NC(=O)C1CCN(c2cn[nH]c(=O)c2)CC1	604
CC(C)CN1C(=O)c2cccn2CC1C(=O)NCCCN1CCOCC1 (stereo not drawn)	577
O=c1ccc(-c2ccccc2F)nn1Cc1nc(-c2ccccc2Cl)no1	1020
CCOc1cc(=O)n2c(c1C(=O)NCCCN1CCCCC1)CCCCC2	568
CCc1nnc([C@@H]2CC(F)(F)CN2C(=O)c2noc(C)c2COC)o1	752
Cc1nc2c(ccc3nc(NC(=O)c4ccccc4Br)sc32)s1	869
CCOC(=O)[C@H](C)C[C@@H](Cc1ccc(-c2ccccc2)cc1)NC(=O)CCC(=O)O	1010
COc1ccc2c(c1)C1(CCN(C(=O)c3cccc(OC)c3OC)C1)C(=O)N2C (stereo not drawn)	737
Cc1cc(NS(=O)(=O)c2cc(-c3ccn[nH]3)sc2C)ccc1Br	908
COc1ccc(C2CC(=O)N(Cc3ccccc3)C(=O)C2)cc1OC	904
CCCN(C)c1nccn2c(=O)n(CC(=O)Nc3ccc(C)cc3)nc12	683

SMILES	RP-LC retention time [s]
COc1ccc2[nH]cc(CCNC(=O)Cn3nc4c(cc3=O)CCCCC4)c2c1	756
OC[C@@H]1CN(Cc2ccccn2)C[C@H]1c1nc(-c2cccnc2)no1	551
CCOC(=O)C(CC)n1nc2nc(Nc3ccc(C)cc3)cc(C)n2c1=O (stereo not drawn)	1230
O=C(COc1ccc(Cl)cc1)Nc1nnc(SCC(=O)NC2CCCC2)s1	798
Cc1cccc(NC(=O)Cc2csc3nc(-c4cccc(Br)c4)cn23)c1C	983
Cc1cc2[nH]c(C(=O)Nc3cc(F)ccc3F)c(CN3CCCC3)c2s1	702
Cc1[nH]c(=O)[nH]c(=O)c1S(=O)(=O)NC1CC2CCC1C2 (stereo not drawn)	658
O=C(Nc1ccc(F)c(Cl)c1)c1cc(=O)c(OCc2ccc(F)cc2)co1	899
CCOc1ccc(-c2noc(Cn3cnc4c(cnn4-c4cc(Cl)ccc4C)c3=O)n2)cc1OC	1030
CCc1sc(NC(=O)c2cc(OC)cc(OC)c2)nc1-c1ccccc1	1200
O=C(C1CCN(c2cnc(N3CCOCC3)nc2)CC1)N1CCCCCC1	684
CCc1noc(-c2cccn2Cc2cc(F)cc(F)c2)n1	1160
CC(C)=CCC/C(C)=C/CNCCNC1C2CC3CC(C2)CC1C3 (stereo not drawn)	624
CC(C)CN1CCn2cc(C(=O)NCc3ccc(F)cc3Cl)nc2C1	646
O=C(c1ccccc1Br)N(Cc1cccc(Cl)c1)C1CCS(=O)(=O)C1 (stereo not drawn)	846
COc1ncccc1CNC(=O)COc1ccccc1	677
CC1CCCC(C)N1CCCNC(=O)Cn1ncc2c3ccccc3n(C)c2c1=O (stereo not drawn)	632
COc1ccc(C)cc1NC(=O)c1nc(C2CCC2)oc1C	1290
COc1cc(NC(=O)N(C)CCc2noc(COc3ccc(F)cc3)n2)cc(OC)c1	874
Cc1ccc(C2(O)C(=O)N(Cc3nc(-c4ccccc4)oc3C)c3ccccc32)cc1 (stereo not drawn)	1110
COc1ccc(OC)c(CNS(=O)(=O)c2cc(-c3nc(C)c(C)s3)sc2C)c1	1030
Cc1ccc(-c2noc(Cn3c(=O)n(-c4cccc(C)c4)c(=O)c4sccc43)n2)cc1	1070
CCOC(=O)c1noc2nc(C)nc(NCc3ccc(CC)cc3)c12	722
CCOc1ccc(CNC(=O)CN2CCN(Cc3ccc(F)cc3)C2=O)cc1OC	751
Cc1cc(NC(=O)CSc2nnc(NC(=O)c3snnc3C)s2)no1	666

Results, then the compound that gave them:

RP-LC retention time [s]	SMILES
742	O=C(c1ccoc1)N1CCCC(OCc2nc(C3CC3)no2)C1 (stereo not drawn)
848	Cc1cccc(-c2nc(N3CCCCCC3)c3ccccc3n2)c1
605	O=C(CC1CCN(C(=O)c2ccc3oc(C4CC4)nc3c2)CC1)NCc1ccccn1
1140	Cc1ccc(Sc2nccnc2N2CCCC(C(=O)NCCC(C)C)C2)cc1 (stereo not drawn)
644	O=C(NCCCN1CCOCC1)c1cc2occc2c(Nc2ccccc2)n1
712	Cn1nccc1C(=O)N1CCC(c2cc(-c3ccc(F)cc3)n[nH]2)CC1
603	O=C(CN1C(=O)C2CCCCC2C1=O)N1CCN(Cc2ccc3c(c2)OCO3)CC1 (stereo not drawn)
952	COC(=O)c1c(C)[nH]c(C(=O)N2CCCC(C(=O)N3CCN(c4cccc(Cl)c4)CC3)C2)c1C (stereo not drawn)
920	CCOC(=O)c1ccc(NC(=O)N2CCC(n3c(C(F)(F)F)nc4cccnc43)CC2)cc1
699	O=C(NCCc1csc(C2CCN(C(=O)c3cc(F)ccc3F)CC2)n1)C1CC1
730	COc1ccc(C2CCCN2C(=O)c2ccn(C)n2)cc1 (stereo not drawn)
774	Cc1ccc(NC(=O)N2CCC(n3c(-c4ccoc4)nc4cccnc43)C2)cc1F (stereo not drawn)
743	CCc1ccc(NC(=O)Cn2cnc3nc(N4CCCC(C(=O)NC5CC5)C4)sc3c2=O)cc1 (stereo not drawn)
888	CSc1ccc(CNC(=O)C2CCCN(c3ccc(=O)n(-c4cccc(F)c4)n3)C2)cc1 (stereo not drawn)
893	CCOC(=O)c1nc(N2CCN(c3ccccc3)CC2)c2ccccc2n1
935	O=C(Cc1cccs1)N1CCCC1c1nc(-c2ccc(F)cc2F)no1 (stereo not drawn)
950	CCCn1cc(S(=O)(=O)Nc2cc(F)ccc2Cl)c2cccnc21
872	O=C(CSC1CCc2ccccc2NC1=O)Nc1cccc(Br)c1 (stereo not drawn)
766	CCN1C(=O)c2cc(C(=O)NCc3ccc(C)cc3)nn2CC1(C)C(=O)NC1CCCC1 (stereo not drawn)

RP-LC retention time [s]	SMILES
643	COc1ccc(CNC(=O)C(=O)NCC(c2ccc3c(c2)OCO3)N2CCOCC2)cc1 (stereo not drawn)
1210	COc1ccc(Cl)cc1NC(=O)c1cc(C2CC2)n2nccc2n1
731	COc1cccc(NC(=O)N2CCC(OC3CCN(S(C)(=O)=O)CC3)CC2)c1
645	O=C(Nc1ccc2c(c1)OCCO2)N1CCCC(Cn2c(C3CC3)nc3cccnc32)C1 (stereo not drawn)
1380	CCn1c(=O)c(N2CCCC(C(=O)N3CCN(c4cc(C)ccc4C)CC3)C2)nc2ccccc21 (stereo not drawn)
1090	Cc1sc(-c2noc(C(C)C)n2)cc1S(=O)(=O)N1CCC(C(=O)NC2CCCCC2)CC1
734	COc1cccc(CNC(=O)C2CCCN(c3ncnc4c3oc3ccccc34)C2)c1 (stereo not drawn)
970	Cn1c(=O)sc2cc(S(=O)(=O)N3CCC(C(=O)Nc4cccc(C(F)(F)F)c4)CC3)ccc21
670	COc1cccc(CNC(=O)Nc2cccc(-c3ccc(N4CCOCC4)nn3)c2)c1
1150	CCOc1ccc(Cl)cc1S(=O)(=O)N1CCC(C(=O)Nc2ccc3c(c2)OCCO3)CC1
977	Cc1ccccc1CNC(=O)C1(C)CCCN(C(=O)Nc2cccc(C)c2C)C1 (stereo not drawn)
619	COc1ccccc1CNC(=O)C1CCN(c2cc(N3CCOCC3)ncn2)CC1
717	O=C(Cn1cc(-c2ccccc2)c2ncnc(N3CCOCC3)c21)NC1CCCC1
713	Cc1ccc(C)c(NC(=O)Cn2cnc3nc(N4CCC(C(=O)NC5CC5)CC4)sc3c2=O)c1
874	CSc1ccc(NC(=O)N2CCc3c(c(-c4nc(C5CC5)no4)nn3C)C2)cc1
684	CCCNC(=O)C1CCCN(c2nc3ncn(CC(=O)Nc4ccc(F)cc4F)c(=O)c3s2)C1 (stereo not drawn)
676	Cn1c(N2CCCC(C(=O)NCc3cccc(F)c3)C2)cc(=O)n(C)c1=O (stereo not drawn)
941	CCCNC(=O)Nc1cccc(-c2noc(-c3ccc4c(c3)OCO4)n2)c1

— the METLIN SMRT retention time set (Domingo-Almenara et al. 2019)
